Results as given in patent US20250121087A1, “ANTIBODY-DRUG CONJUGATES COMPRISING ANTI-B7-H3 ANTIBODIES” (priority 2020, published 2025).

Tested on: JIMT-1 xenograft
Experiment: In vivo efficacy, JIMT-1 tumor xenograft (tumor volume, body weight)
Conditions: control conjugate, 5 mg/kg i.v.; BALB/c nu/nu mice
Description: T-20-AB2.1, T-23-AB2.1, T-Int-102-D1-5 AB2.1, and T-Int0112-AB2.1 were prepared with 20 mg scale reaction. After purification by HIC column, final samples were concentrated to 5-10 mg/ml protein.
In vivo efficacy of T-20-AB2.1 and T-23-AB2.1 was measured by tumor xenograft studies in mice. Female BALB/c nu/nu were injected subcutaneously in the right flank with suspensions of 5×10^6 of JIMT-1 cells respectively in PBS. Mice were randomized into study groups when tumors reached approximately 150 mm^3. T-DM1 (5 mg/kg) and T-20-AB2.1 and T-23-AB2.1 conjugates (0.3 mg/kg, QW X^4) were given i.v. All treatment groups consisted of 6 to 10 animals per group, and tumor size was monitored twice weekly using caliper measurement. The tumor mass was calculated as volume=(width×width×length)/2.

T-DM1
activity in JIMT-1 xenograft versus the conjugates of the disclosure: less active
